Assay results from US20230167127A1, “COMPOUNDS AND THEIR USE IN THE TREATMENT OF BACTERIAL INFECTION” (Hoffmann-La Roche Inc., priority 2020, published 2023).

Tested on: Escherichia coli ATCC 25922
Experiment: 50% growth inhibitory concentration (IC50) determination, Iso-Sensitest broth dilution
Type: cell-based
Conditions: Escherichia coli, ATCC25922, 16 h, strain Escherichia coli ATCC 25922; 10-point broth dilution, optical density at 600 nm over 16 h; read-out: Escherichia coli growth inhibition IC50
Procedure, shortened: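 Growth was tracked as optical density at 600 nm every 20 minutes for 16 h at 35±2° C. Compounds from DMSO stocks were serially diluted twofold over 10 points (e.g. 50–0.097 μM final) in Iso-Sensitest broth. Inhibition computed in log-phase growth to give IC50.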

Q: For `CNc1cc2c(c(C)n1)CC(CNCCC1CN(c3ccc4c(n3)NC(=O)CO4)C(=O)O1)C2` (centres unmarked) [Example 420, 6-[5-[2-[[1-Methyl-3-(methylamino)-6,7-dihydro-5H-cyclopenta[c]pyridin-6-yl]methylamino]ethyl]-2-oxo-1,3-oxazolidin-3-yl]-4H-pyrido[3,2-b][1,4]oxazin-3-one], which IC50 is on record?
A: 196 nM

Q: For `CS(=O)(=O)NCCOc1cc(F)c2c(c1)CC(CNCCC1CN(c3cnc4c(n3)NC(=O)CO4)C(=O)O1)C2` (centres unmarked) [Example 324, N-[2-[[7-fluoro-2-[[2-[2-oxo-3-(3-oxo-4H-pyrazino[2,3-b][1,4]oxazin-6-yl)-1,3-oxazolidin-5-yl]ethylamino]methyl]-2,3-dihydro-1H-inden-5-yl]oxy]ethyl]methanesulfonamide], which IC50 is on record?
A: 205 nM

Q: How did the IC50 turn out when `NC1(CCNCC2Cc3cccc(Cl)c3C2)CC(=O)N(c2ccc3c(n2)NC(=O)CO3)C1` (centres unmarked) [Example 140, 6-[4-amino-4-[2-[(4-chloro-2,3-dihydro-1H-inden-2-yl)methylamino]ethyl]-2-oxopyrrolidin-1-yl]-4H-pyrido[3,2-b][1,4]oxazin-3-one] was run?
A: 314 nM

Q: `O=C1COc2ccc(N3CC(CCNCC4Cc5cc(OC6CNC6)cc(F)c5C4)OC3=O)nc2N1` (centres unmarked) [Example 150, 6-[5-[2-[[6-(azetidin-3-yloxy)-4-fluoro-2,3-dihydro-1H-inden-2-yl]methylamino]ethyl]-2-oxo-1,3-oxazolidin-3-yl]-4H-pyrido[3,2-b][1,4]oxazin-3-one] was tested. Which IC50 did it give?
A: < 97.7 nM

Q: `Cc1nccc2c1CC(CNCCC1CN(c3ccc4c(n3)NC(=O)CO4)C(=O)O1)C2N` (racemic) [Example 130, 6-[2-oxo-5-[2-[(rac-5,6-trans-5-amino-1-methyl-6,7-dihydro-5H-cyclopenta[c]pyridin-6-yl)methylamino]ethyl]-1,3-oxazolidin-3-yl]-4H-pyrido[3,2-b][1,4]oxazin-3-one; formic acid] was tested. Which IC50 did it give?
A: 868 nM

Q: Which IC50 does the source give for `N#Cc1cccc2c1CC(N[C@H]1C[C@H](C3CN(c4ccc5c(n4)NC(=O)CO5)C(=O)O3)C1)C2` (stereo partly drawn) [Example 14, 2-[[trans-3-[2-oxo-3-(3-oxo-4H-pyrido[3,2-b][1,4]oxazin-6-yl)-1,3-oxazolidin-5-yl]cyclobutyl]amino]-2,3-dihydro-1H-indene-4-carbonitrile] here?
A: 415 nM

Q: Which IC50 does the source give for `Cc1nc(C)c2c(c1F)CC(CNCCC1CN(c3cnc4c(n3)NC(=O)CO4)C(=O)O1)C2` (centres unmarked) [Example 352, 6-[5-[2-[(4-fluoro-1,3-dimethyl-6,7-dihydro-5H-cyclopenta[c]pyridin-6-yl)methylamino]ethyl]-2-oxo-1,3-oxazolidin-3-yl]-4H-pyrazino[2,3-b][1,4]oxazin-3-one; formic acid] here?
A: < 97.7 nM

Q: With `Cc1ncc(Cl)c2c1CC(CNCCC1CN(c3ccc4c(n3)NC(=O)CO4)C(=O)O1)C2N` (racemic) [Example 262, 6-[5-[2-[(rac-5,6-trans-5-Amino-4-chloro-1-methyl-6,7-dihydro-5H-cyclopenta[c]pyridin-6-yl)methylamino]ethyl]-2-oxo-1,3-oxazolidin-3-yl]-4H-pyrido[3,2-b][1,4]oxazin-3-one; formic acid] as the compound, how does the IC50 read?
A: < 97.7 nM

Q: Which IC50 does the source give for `N#Cc1cccc2c1CC(CNCCc1nn(-c3ccc4c(c3)NC(=O)CO4)c(=O)o1)C2` (centres unmarked) [Example 42, 2-[[2-[5-oxo-4-(3-oxo-4H-1,4-benzoxazin-6-yl)-1,3,4-oxadiazol-2-yl]ethylamino]methyl]-2,3-dihydro-1H-indene-4-carbonitrile; formic acid] here?
A: 158 nM

Q: Which IC50 does the source give for `CC(N)COc1cc2c(c(Cl)n1)CC(CNCCC1CN(c3ccc4c(n3)NC(=O)CO4)C(=O)O1)C2` (centres unmarked) [Example 144, 6-[5-[2-[[3-(2-aminopropoxy)-1-chloro-6,7-dihydro-5H-cyclopenta[c]pyridin-6-yl]methylamino]ethyl]-2-oxo-1,3-oxazolidin-3-yl]-4H-pyrido[3,2-b][1,4]oxazin-3-one; formic acid] here?
A: 131 nM

Q: Which IC50 does the source give for `O=C1COc2ccc(N3CC(CNC4Cc5ccc(Cl)cc5C4)OC3=O)nc2N1` (centres unmarked) [Example 25, 6-[5-[[(5-chloro-2,3-dihydro-1H-inden-2-yl)amino]methyl]-2-oxo-1,3-oxazolidin-3-yl]-4H-pyrido[3,2-b] [1,4]oxazin-3-one] here?
A: 4070 nM
